≈ marks a conversion by molar mass, not a printed value.

For data set [1], the system named is Staphylococcus aureus (ATCC 25923). As to the kind of experiment: Microplate Alamar Blue Assay, Staphylococcus aureus. The format is cell-based. Particulars: Staphylococcus aureus, ATCC25923; 200 μg/mL; NI = No inhibition; read-out: Percentage (%) Inhibition, Staphylococcus aureus. On the technique in general: Resazurin is reduced to fluorescent resorufin, in cell work by metabolically active cells.

In data set [2] the test system is isolated polymorphonuclear neutrophils (PMNs). As to the kind of experiment: Oxidative burst assay (luminol-enhanced chemiluminescence), isolated PMNs. The conditions noted are these: Polymorphonuclear neutrophil, isolated human PMNs, zymosan, three doses 1, 10, 100 μg/mL, mean ± SD of three, read-out: Oxidative Burst Inhibition (IC50) PMNs. The format is cell-based. From the text: Heparinized blood was obtained by vein puncture aseptically from healthy volunteers. The PMNs were isolated by ficoll-Hypaque density gradient method. The cells were isolated after centrifugation from the tube base. Cells were washed twice and suspended in Hank’s Balance salt solution (HBSS^--) (Ca^2+ and Mg^2+ free), RBCs were lysed using hypotonic solution. Cells were adjusted to their required concentration (1x10^6 cells/mL) using HBSS^++containing Ca^2+ and Mg^2+.
Luminol-enhanced chemiluminescence assay was performed, as described by Helfandet al., 1982 [17], with some modifications. Briefly 25 μL of diluted whole blood in HBSS^++ (Hanks Balanced Salt Solution, containing calcium chloride and magnesium chloride) [Sigma, St. Louis, USA] was incubated with 25 μL of three different concentrations of compounds (1, 10, and 100 μg/mL), each in triplicate. Control wells received HBSS^++ and cells, but no compounds. Test was performed in white half area 96-well plates [Costar, NY, USA], which was incubated at 37 °C for 15 minutes in the thermostat chamber of luminometer [Labsystems, Helsinki, Finland]. After incubation, 25 μL of serum opsonized zymosan (SOZ) [Fluka, Buchs, Switzerland] and 25 μL of intracellular reactive oxygen species detecting probe, luminol [Research Organics, Cleveland, OH, USA] were added into each well, except blank wells (containing only HBSS^++). The level of the ROS was recorded in luminometer in term of relative light units (RLU).

Data set [3] deals with Pseudomonas aeruginosa (POA 286). As to the kind of experiment: Microplate Alamar Blue Assay, Pseudomonas aeruginosa. The conditions noted are these: Pseudomonas aeruginosa; 200 μg/mL; NI = No inhibition; read-out: Percentage (%) Inhibition, Pseudomonas aerugenosa. The data set is classed as cell-based.
The subject of data set [4] is nitric oxide (NO) production from LPS activated J774.2 mouse macrophages. The experiment in a line: Nitric oxide production (Griess), LPS activated macrophages. Particulars: J774.2 cells, 30 μg/mL LPS, three doses 1, 10, 100 μg/mL, mean ± SD of three, read-out: NO Inhibition (IC50). The format is cell-based. How it is done: The mouse macrophage cell line J774.2 (European Collection of Cell Cultures, UK) was cultured in 75 cc flasks IWAKI (Asahi Techno Glass, Japan) in DMEM Sigma-Aldrich (Steinheim, Germany) supplemented with 10% fetal bovine serum GIBCO (New York, USA)1% streptomycin/penicillin. Flasks were kept at 37 °C in atmosphere of humidified air containing 5% CO2, cells were seeded in 96-well plate (10^6 cells/mL) and were induced by 30 μg/mL e. coli lipopolysaccharide (LPS) (DIFCO Laboratories michigon, USA). The test compounds were added at concentrations of (1, 10 and 100 μg/mL) and plate was incubated at 37 °C in 5% CO2. Nitrite accumulation in culture supernatant was measured using the Griess reagents as described previously.

One may read the inhibition as the drop in the measured response relative to a control, in per cent. By IC50 is commonly meant the concentration that gives 50% inhibition. Broadly, the melting point is the temperature of the solid-liquid transition. `Cc1cc(C)nc(NS(=O)(=O)c2ccc(NC(=O)c3cc(F)cc(F)c3)cc2)n1` [Compound 7, N-(4-(N-(4,6-dimethylpyrimidin-2-yl)sulfamoyl)phenyl)-3,5-difluorobenzamide] came in with a melting point of 237 to 240 °C. Moreover, the inhibition at 200 µg/mL in data set [1] stood at 54.3%. Further, the IC50 in data set [2] was determined as 2.9 ± 0.3 µg/mL. For the same compound, the inhibition at 200 µg/mL in data set [3] is less than 0%. The IC50 in data set [4] is 8 ± 0.3 µg/mL (≈ 19.1 µM).

As to `Cc1cc(C)nc(NS(=O)(=O)c2ccc(NC(=O)c3ccc(C(F)(F)F)c(F)c3)cc2)n1` [Compound 9, N-(4-(N-(4,6-dimethylpyrimidin-2-yl)sulfamoyl)phenyl)-3-fluoro-4-(trifluoromethyl)benzamide], the inhibition at 200 µg/mL is 27.9% in data set [1] and less than 0% in data set [3]. Further, the IC50 in data set [2] turned out to be 2.8 ± 0.05 µg/mL; in data set [4], 7.3 ± 0.4 µg/mL (≈ 15.6 µM).

The compound `Cc1cc(C)nc(NS(=O)(=O)c2ccc(NC(=O)C(C)Cl)cc2)n1` (stereo not drawn) [Compound 11, 2-Chloro-N-(4-(N-(4,6-dimethylpyrimidin-2-yl)sulfamoyl)phenyl)propanamide] displayed a melting point of 256 to 258 °C. In addition, the inhibition at 200 µg/mL in data set [1] is less than 0%. Moreover, in data set [2], the half-maximal inhibitory concentration (IC50) was found to be 6.2 ± 0.13 µg/mL. Also, in data set [3], the inhibition at 200 µg/mL is 26.5%. For the same compound, in data set [4], the IC50 came out at 26.3 ± 1.8 µg/mL (≈ 71.3 µM).

For the compound `Cc1cc(C)nc(NS(=O)(=O)c2ccc(NC(=O)c3ccc(CCl)cc3)cc2)n1` [Compound 5, 4-(Chloromethyl)-N-(4-(N-(4,6-dimethylpyrimidin-2-yl)sulfamoyl)phenyl)benzamide], the inhibition at 200 µg/mL in data set [1] is 35%; in data set [3], less than 0%. Besides, the IC50 was 3 ± 0.06 µg/mL in data set [2] and 6.9 ± 1.9 µg/mL (≈ 16 µM) in data set [4].

Take `Cc1cc(C)nc(NS(=O)(=O)c2ccc(NC(=O)c3cc(C(F)(F)F)cc(C(F)(F)F)c3)cc2)n1` [Compound 6, N-(4-(N-(4,6-dimethylpyrimidin-2-yl)sulfamoyl)phenyl)-3,5-bis(trifluoromethyl)benzamide]: the inhibition at 200 µg/mL was 32.7% in data set [1] and less than 0% in data set [3]. In addition, the IC50 in data set [2] was 3.4 ± 0.1 µg/mL; in data set [4], 7.8 ± 0.3 µg/mL (≈ 15 µM).

As for `Cc1cc(C)nc(NS(=O)(=O)c2ccc(N)cc2)n1` [compound 1, Sulfamethazine, reference compound], the figures for the inhibition at 200 µg/mL in data set [1] and in data set [3] were 42.2% and 8.92%, respectively. Moreover, the results for the IC50 in data set [2] and in data set [4] were 5.2 ± 0.05 µg/mL and 18.9 ± 1.7 µg/mL (≈ 67.9 µM), respectively.

On to `Cc1cc(C)nc(NS(=O)(=O)c2ccc(NC(=O)C(Br)CBr)cc2)n1` (stereo not drawn) [Compound 3, 2,3-Dibromo-N-(4-(N-(4,6-dimethylpyrimidin-2-yl)sulfamoyl)phenyl)propanamide], for which the results for the inhibition at 200 µg/mL in data set [1] and in data set [3] were 60% and 5.93%, respectively. In addition, the IC50 was 3.6 ± 0.05 µg/mL in data set [2] and less than 1 µg/mL in data set [4].

As to `Cc1cc(C)nc(NS(=O)(=O)c2ccc(NC(=O)c3cccc([N+](=O)[O-])c3)cc2)n1` [Compound 13, N-(4-(N-(4,6-dimethylpyrimidin-2-yl)sulfamoyl)phenyl)-3-nitrobenzamide], the melting point was 251 to 253 °C. Moreover, the inhibition at 200 µg/mL in data set [1] came out at 34.3%. For the same compound, the IC50 in data set [2] came to 4.9 ± 0.2 µg/mL. In data set [3], the inhibition at 200 µg/mL is 6.58%. Moreover, the IC50 in data set [4] stood at 10.9 ± 0.5 µg/mL (≈ 25.5 µM).

Turning to `Cc1cc(C)nc(NS(=O)(=O)c2ccc(NC(=O)c3cc(F)cc(C(F)(F)F)c3)cc2)n1` [Compound 8, N-(4-(N-(4,6-dimethylpyrimidin-2-yl)sulfamoyl)phenyl)-3-fluoro-5-(trifluoromethyl)benzamide], the inhibition at 200 µg/mL is 47.3% in data set [1] and 4.31% in data set [3]. In addition, the IC50 in data set [2] was 2.4 ± 0.07 µg/mL; in data set [4], 7.3 ± 0.3 µg/mL (≈ 15.6 µM).

Take `Cc1cc(C)nc(NS(=O)(=O)c2ccc(NC(=O)c3cccc(CCl)c3)cc2)n1` [Compound 4, 3-(Chloromethyl)-N-(4-(N-(4,6-dimethylpyrimidin-2-yl)sulfamoyl)phenyl)benzamide]: the inhibition at 200 µg/mL in data set [1] was 3.21%; in data set [3], less than 0%. For the same compound, the results for the IC50 in data set [2] and in data set [4] were 6.1 ± 0.08 µg/mL and less than 1 µg/mL, respectively.

For `Cc1cc(C)nc(NS(=O)(=O)c2ccc(NC(=O)c3ccc(F)cc3)cc2)n1` [Compound 12, N-(4-(N-(4,6-dimethylpyrimidin-2-yl)sulfamoyl)phenyl)-4-fluorobenzamide], the inhibition at 200 µg/mL in data set [1] was 49.7%; in data set [3], less than 0%. Further, the IC50 in data set [2] amounted to 3.3 ± 0.05 µg/mL; in data set [4], 10.8 ± 2.1 µg/mL (≈ 27 µM).

As for `Cc1cc(C)nc(NS(=O)(=O)c2ccc(NC(=O)c3ccc(F)c(C(F)(F)F)c3)cc2)n1` [Compound 10, N-(4-(N-(4,6-dimethylpyrimidin-2-yl)sulfamoyl)phenyl)-4-fluoro-3-(trifluoromethyl)benzamide], the results for the inhibition at 200 µg/mL in data set [1] and in data set [3] were 1.09% and less than 0%, respectively. In addition, the IC50 is 3.4 ± 0.4 µg/mL in data set [2] and 7.3 ± 0.2 µg/mL (≈ 15.6 µM) in data set [4].

The values above are taken from publication PMC6300282, “Sulphamethazine derivatives as immunomodulating agents: New therapeutic strategies for inflammatory diseases” (PLoS ONE, 2018).
